Where a name gives a salt, the structure may show the parent alone. Read-outs that look alike come from different tables or passages of the source. Starred links: 1 amine or outer side, 2 acyl side, 3 side chain; linkers in the order of their positions; H or OH if unused. Positions of bridges follow the written chain, without caps; N, C: chain ends. Non-standard residues stand in square brackets, D forms with d. Residues, ends and D or L forms follow the SMILES beside them. Groups on a side chain read outwards from the residue. *: point of attachment. DOTA = O=C(O)CN1CCN(CC(=O)O)CCN(CC(=O)*)CCN(CC(=O)O)CC1; Trp(5-OH) = N[C@@H](Cc1c[nH]c2ccc(O)cc12)C(=O)O; Piperazinyl(4-CH2COOH) = O=C(O)CN1CCN(*)CC1; NMePhe(4-F) = CN[C@@H](Cc1ccc(F)cc1)C(=O)O; Lys(N3) = [N-]=[N+]=NCCCC[C@H](N)C(=O)O; NMehPhe = CN[C@@H](CCc1ccccc1)C(=O)O; Aad = N[C@@H](CCCC(=O)O)C(=O)O; Gly(cPr) = N[C@H](C(=O)O)C1CC1; NMehCys = CN[C@@H](CCS)C(=O)O; NMeK = CN[C@@H](CCCCN)C(=O)O; NMeDap = CN[C@@H](CN)C(=O)O; NMeC = CN[C@@H](CS)C(=O)O; NMeS = CN[C@@H](CO)C(=O)O; hCys = N[C@@H](CCS)C(=O)O; CO = O=C([*:1])[*:2]
Legend:
Type in all cases: binding
human HER2 (23-652) [1] = molecular target: T1, human HER2 (23-652) (Homo sapiens, UniProt P04626); assay: Surface plasmon resonance (SPR) for assessment of peptide affinity, human HER2; design: towards human HER2 (23-652) and mouse HER2 (23-653); made in house; settings: SPR, human HER2 extracellular domain, 25° C., 1:1 binding model; read-out: huHER2-SPR-ONC KD
Summary of the method: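 Binding kinetics fitted from sensorgrams with 280 s peptide association then 3000 s dissociation (30 uL/min), using HER2 (23-652) either directly immobilized (SA/CM5) or anti-Fc-captured; 3 M magnesium chloride used for regeneration.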

mouse HER2 (23-653) [2] = molecular target: T2, mouse HER2 (23-653) (Mus musculus, UniProt P70424); assay: Surface plasmon resonance (SPR) for assessment of peptide affinity, mouse HER2; design: mouse HER2 (23-653) using a Cy5 labeled peptide as a probe; made in house; settings: SPR, mouse HER2 extracellular domain, 25° C., 1:1 binding model; read-out: moHER2-SPR-ONC KD
Text: Each protein was immobilized either onto a SA sensorchip (Cytiva, BR-1005-31) or CM5 sensorchip (Cytiva, BR-1005-30) to a density of 800-2000 RU.

human HER2 (23-652) [3] = molecular target: T1, human HER2 (23-652); assay: TR-FRET competition assay for peptide potency, human HER2; design: towards human HER2 (23-652) and mouse HER2 (23-653); made in house; host or cells: mammalian cells
mouse HER2 (23-653) [4] = molecular target: T2, mouse HER2 (23-653); assay: TR-FRET competition assay for peptide potency, mouse HER2; design: mouse HER2 (23-653) using a Cy5 labeled peptide as a probe; made in house; host or cells: mammalian cells
[5] = TR-FRET competition with Cy5 labeled peptide probe, 0.1 nM mouse HER2, 24 h incubation, read-out: moHER2 TR-FRET IC50
[6] = value in parentheses (**): recalculated after further repetition, read-out: moHER2 TR-FRET IC50, recalculated value achieved after further repetition

SMILES | Kd (human HER2 (23-652) [1]) [nM] | Kd (mouse HER2 (23-653) [2]) [nM] | IC50 (human HER2 (23-652) [3]; read-out: huHER2 TR-FRET IC50) [nM] | IC50 (mouse HER2 (23-653) [4]; [5]) [nM] | IC50 (mouse HER2 (23-653) [4]; [6]) [nM] | IC50 (human HER2 (23-652) [3]; TR-FRET competition with Cy5 labeled peptide probe, 0.1 nM human HER2, 24 h incubation, read-out: huHER2 TR-FRET IC50) [nM] | IC50 (human HER2 (23-652) [3]; value in parentheses (**): recalculated after further repetition, read-out: huHER2 TR-FRET IC50, recalculated value achieved after further repetition) [nM]
CC(=O)NCCCC[C@H]1C(=O)N[C@@H](Cc2c[nH]c3ccc(O)cc23)C(=O)N[C@@H](Cc2c[nH]c3ccccc23)C(=O)N[C@@H](C2CC2)C(=O)N(C)[C@H](C(=O)N(C)[C@@H](Cc2ccc(F)cc2)C(N)=O)CCSSC[C@H](N)C(=O)N[C@@H](Cc2ccc(O)cc2)C(=O)N[C@@H](CO)C(=O)N(C)[C@@H](CCc2ccccc2)C(=O)N1C [Example A56, (5S,8S,11S,14S,17S,20S,23S,26S,29R)-11-((1H-indol-3-yl)methyl)-17-(4-acetamidobutyl)-29-amino-N-((S)-1-amino-3-(4-fluorophenyl)-1-oxopropan-2-yl)-8-cyclopropyl-14-((5-hydroxy-1/-indol-3-y1)methyl)-26-(4-hydroxybenzyl)-23-(hydroxymethyl)-N,6,18,21-tetramethyl-7,10,13,16,19,22,25,28-octaoxo-20-phenethyl-1,2-dithia-6,9,12,15,18,21,24,27-octaazacyclotriacontane-5-carboxamide TFA salt] (H-CYS[NMehPhe][NMeK](Ac)[Trp(5-OH)]W[Gly(cPr)][NMehCys][NMePhe(4-F)]-NH2; disulfide 1-9) | 443 | 413 | 229 | 755 |  |  | 
CN1C(=O)[C@H](CO)NC(=O)[C@H](Cc2ccc(O)cc2)NC(=O)[C@@H](N)CCSSC[C@@H](C(=O)N(C)[C@@H](Cc2ccc(F)cc2)C(N)=O)N(C)C(=O)[C@H](C2CC2)NC(=O)[C@H](Cc2c[nH]c3ccccc23)NC(=O)[C@H](Cc2c[nH]c3ccc(O)cc23)NC(=O)[C@H](CO)N(C)C(=O)[C@@H]1CCc1ccccc1 [Example A57, (4R,7S,10S,13S,16S,19S,22S,25S,28S)-10-((1H-indol-3-yl)methyl)-28-amino-N-((S)-1-amino-3-(4-fluorophenyl)-1-oxopropan-2-y1)-7-cyclopropyl-13-((5-hydroxy-1H-indol-3-y1)methyl)-25-(4-hydroxybenzyl)-16,22-bis(hydroxymethyl)-N,5,17,20-tetramethyl-6,9,12,15,18,21,24,27-octaoxo-19-phenethyl-1,2-dithia-5,8,11,14,17,20,23,26-octaazacyclotriacontane-4-carboxamide TFA salt] (H-[hCys]YS[NMehPhe][NMeS][Trp(5-OH)]W[Gly(cPr)][NMeC][NMePhe(4-F)]-NH2; disulfide 1-9) | 2000 | 1460 | > 1000 | > 1000 |  |  | 
CC(=O)NCCCC[C@H]1C(=O)N[C@@H](Cc2c[nH]c3ccc(O)cc23)C(=O)N[C@@H](Cc2c[nH]c3ccccc23)C(=O)N[C@@H](C2CC2)C(=O)N(C)[C@H](C(=O)N(C)[C@@H](Cc2ccc(F)cc2)C(=O)N[C@@H](CCCCN=[N+]=[N-])C(N)=O)CNC(=O)CCC[C@H](NC(C)=O)C(=O)N[C@@H](Cc2ccc(O)cc2)C(=O)N[C@@H](CO)C(=O)N(C)[C@@H](CCc2ccccc2)C(=O)N1C [Example A74] (Ac-[Aad]YS[NMehPhe][NMeK](Ac)[Trp(5-OH)]W[Gly(cPr)][NMeDap][NMePhe(4-F)][Lys(N3)]-NH2; lactam 1-9) | 0.1 | 0.1 | 0.1 | 0.5 | 0.3 |  | 
CC(=O)NCCCC[C@H]1C(=O)N[C@@H](Cc2c[nH]c3ccc(O)cc23)C(=O)N[C@@H](C)C(=O)N[C@@H](C2CC2)C(=O)N(C)[C@H](C(=O)N(C)[C@@H](Cc2ccc(F)cc2)C(=O)N[C@@H](CCCCNC(=O)CN2CCN(CC(=O)O)CCN(CC(=O)O)CCN(CC(=O)O)CC2)C(N)=O)CNC(=O)CCC[C@H](NC(C)=O)C(=O)N[C@@H](Cc2ccc(O)cc2)C(=O)N[C@@H](CO)C(=O)N(C)[C@@H](CCc2ccccc2)C(=O)N1C [Example B3] (Ac-[Aad]YS[NMehPhe][NMeK](Ac)[Trp(5-OH)]A[Gly(cPr)][NMeDap][NMePhe(4-F)]K(DOTA)-NH2; lactam 1-9) | > 6000 | > 6000 | > 1000 | > 1000 |  |  | 
CC(=O)N[C@H]1CCCC(=O)NC[C@@H](C(=O)N(C)[C@@H](Cc2ccc(F)cc2)C(=O)N[C@@H](CCCCNC(=O)CN2CCN(CC(=O)O)CCN(CC(=O)O)CCN(CC(=O)O)CC2)C(N)=O)N(C)C(=O)[C@H](C2CC2)NC(=O)[C@H](Cc2c[nH]c3ccccc23)NC(=O)[C@H](Cc2c[nH]c3ccc(O)cc23)NC(=O)[C@H](CCCCNC(=O)CO)N(C)C(=O)[C@H](CCc2ccccc2)N(C)C(=O)[C@H](CO)NC(=O)[C@H](Cc2ccc(O)cc2)NC1=O [Example B5] | < 0.1 | 0.1 | < 0.1 | 0.2 |  |  | 
CC(=O)N[C@H]1CCCC(=O)NC[C@@H](C(=O)N(C)[C@@H](Cc2ccc(F)cc2)C(=O)N[C@@H](CCCCNC(=O)CN2CCN(CC(=O)O)CCN(CC(=O)O)CCN(CC(=O)O)CC2)C(N)=O)N(C)C(=O)[C@H]([C@H](C)O)NC(=O)[C@H](Cc2c[nH]c3ccccc23)NC(=O)[C@H](Cc2c[nH]c3ccc(O)cc23)NC(=O)[C@H](CCCCNC(=O)CO)N(C)C(=O)[C@H](CCc2ccccc2)N(C)C(=O)[C@H](CO)NC(=O)[C@H](Cc2ccc(O)cc2)NC1=O [Example B6] | 0.5 | 1.2 | 0.3 | 1.1 |  |  | 
CC(=O)N[C@H]1CCCC(=O)NC[C@@H](C(=O)N(C)[C@@H](Cc2ccc(F)cc2)C(=O)N[C@@H](CCCCNC(=O)CN2CCN(CC(=O)O)CCN(CC(=O)O)CCN(CC(=O)O)CC2)C(N)=O)N(C)C(=O)[C@H]([C@H](C)O)NC(=O)[C@H](Cc2c[nH]c3ccccc23)NC(=O)[C@H](Cc2c[nH]c3ccc(O)cc23)NC(=O)[C@H](CCCCNC(=O)CCO)N(C)C(=O)[C@H](CCc2ccccc2)N(C)C(=O)[C@H](CO)NC(=O)[C@H](Cc2ccc(O)cc2)NC1=O [Example B7] | 0.4 | 0.8 | 0.4 | 1.3 |  |  | 
CC(=O)NCCCC[C@H]1C(=O)N[C@@H](Cc2c[nH]c3ccc(O)cc23)C(=O)N[C@H](Cc2c[nH]c3ccccc23)C(=O)N[C@@H](C2CC2)C(=O)N(C)[C@H](C(=O)N(C)[C@@H](Cc2ccc(F)cc2)C(=O)N[C@@H](CCCCNC(=O)CN2CCN(CC(=O)O)CCN(CC(=O)O)CCN(CC(=O)O)CC2)C(N)=O)CNC(=O)CCC[C@H](NC(C)=O)C(=O)N[C@@H](Cc2ccc(O)cc2)C(=O)N[C@@H](CO)C(=O)N(C)[C@@H](CCc2ccccc2)C(=O)N1C [Example B9] | 5110 | > 6000 | > 1000 | > 1000 |  |  | 
CC(=O)NCCCC[C@H]1C(=O)N[C@@H](Cc2c[nH]c3ccc(O)cc23)C(=O)N[C@@H](Cc2c[nH]c3ccccc23)C(=O)N[C@@H](C2CC2)C(=O)N(C)[C@H](C(=O)N(C)[C@@H](Cc2ccc(F)cc2)C(=O)N[C@@H](CCCCNC(=O)CCC(C(=O)O)N2CCN(CC(=O)O)CCN(CC(=O)O)CC2)C(N)=O)CNC(=O)CCC[C@H](NC(C)=O)C(=O)N[C@@H](Cc2ccc(O)cc2)C(=O)N[C@@H](CO)C(=O)N(C)[C@@H](CCc2ccccc2)C(=O)N1C (stereo partly shown) [Example B13] | < 0.1 | < 0.1 | < 0.1 | < 0.1 |  |  | 
CC(=O)NCCCC[C@H]1C(=O)N[C@@H](Cc2c[nH]c3ccc(O)cc23)C(=O)N[C@@H](Cc2c[nH]c3ccccc23)C(=O)N[C@@H](C2CC2)C(=O)N(C)[C@H](C(=O)N(C)[C@@H](Cc2ccc(F)cc2)C(=O)N[C@@H](CCCCNC(=O)CN2CCN(CC(=O)O)CCN(CC(=O)O)CCN(CC(=O)O)CC2)C(N)=O)CNC(=O)CCC[C@H](NC(C)=O)C(=O)N[C@@H](Cc2ccc(O)cc2)C(=O)N[C@@H](CCCCNC(=O)N2CCN(CC(=O)O)CC2)C(=O)N(C)[C@@H](CCc2ccccc2)C(=O)N1C [Example C7] (Ac-[Aad]YK([CO-Piperazinyl(4-CH2COOH)])[NMehPhe][NMeK](Ac)[Trp(5-OH)]W[Gly(cPr)][NMeDap][NMePhe(4-F)]K(DOTA)-NH2; lactam 1-9) | 1150 | 799 |  | 422 | 434 | 236 | 164
